Assay: Lipid maldigestion/malabsorption animal model obtained with Orlistat: EPA incorporation in red blood cells, plasma lipids and tissues
Type: in vivo, rats
Conditions: comparison between the groups receiving fish oil with or without Orlistat; day 7
From the text: Treatments: Control rats fed fish oil with or without Orlistat and rats fed NAG derivatives described in FIGS. 1A and 1B. Values are means±SEM (n=6).
The inventors tested their concept in a lipid malabsorption animal model. The lipid maldigestion/malabsorption conditions were obtained using Orlistat®, a well known pancreatic and gastric lipases inhibitor. Animals were fed with long-chain polyunsaturated fatty acid (LC-PUFA) supplements containing mainly eicosapentaenoic (EPA) acid. Fish oil was used as a source of triacylglycerols and different EPA glycerides, for example those of FIGS. 1A and 1B, were evaluated. At different time intervals the fatty acid profile of red blood cells and plasma lipids was assessed. At the end of the experiment, fatty acid profiles of different tissues were determined. […]
The concept was tested in a lipid maldigestion or malabsorption animal model. […] Fish oil was used as a source of triacylglycerols and the different EPA glycerides provided in FIGS. 1A and 1B were evaluated. […] At the end of the experiment, fatty acid profiles of different tissues were determined.
The main objective was to follow the level of EPA in red blood cell and plasma lipids. The main comparison evaluated was the difference in EPA level between groups receiving EPA derivatives (FIGS. 1A and 1B) in combination with Orlistat and the […] control group (fish oil+Orlistat).

CCCCCCCCCCC[C@@H](C[C@@H]1OC(=O)[C@H]1CCCCCC)OC(=O)[C@H](CC(C)C)NC=O [Orlistat]
EPA incorporation in red blood cells: decrease EPA incorporation in red blood cells

Source: patent US10039742B2, “Sn-2-monoacylglycerols and lipid malabsorption” (Nestec S.A., priority 2010, dated 2018)
